The test system of one data set is neuroblastoma cell lines. The note with it: first administered ten days after inoculation with two different neuroblastoma cell lines; cited from earlier work.
Data set [1] in a line: Survival and toxicity after TBI and stem cell rescue in the mouse stem cell transplant model. Format: in vivo, FVB mice. The source says:
Donors, recipients and preparative regimen. Transgenic mice expressing a human IgM Tg in the FVB background were used as the donor source of bone marrow stem cells for transplantation. The FVB strain of inbred mice is frequently utilized in the generation of transgenic animals. Marrow was collected from Tg+ mice from femurs flushed with sterile PBS. Recipients were FVB mice (Jackson Laboratory, Bar Harbor, Me.) or Tg negative littermates of the Tg positive donors, treated in groups of 5-8 animals/intervention. Recipients received total body irradiation (TBI) in an M38-1 Irradiator (Isomedix) at a dose rate of 2.7 Gy/min in a mixed/split fashion with a 3 hour interfraction interval to allow a higher dose of radiation without significant gastrointestinal toxicity. After completion of TBI, mice received stem cells via tail vein injection. The mice were maintained in a temperature controlled humidified area in autoclaved microisolator cages and fed ad libitum and provided acidified water. Mice were assessed three times weekly after stem cell infusion. These studies were approved by the Animal Care and Use Committee of the Children's Hospital of Philadelphia.
(§1) Compound (drug). TNP-470 was provided by TAP Pharmaceuticals (Deerfield, Ill.). Prior to use, TNP-470 was reconstituted in sterile saline, aliquoted and stored at −80° C. TNP-470 was used at a dose of 20-100 mg/kg given SQ three times per week beginning at day 0 or at a dose of 10-20 mg/kg/week given by continuous intraperitoneal infusion using an Alzet infusion pump (Alza Co., Palo Alto, Calif.). The continuous TNP-470 infusion began on the day prior to transplant to allow for pump implantation (see below).
Effect of TNP-470 on engraftment. Several dose levels of TNP-470 were explored to assess any effect on BM engraftment and engraftment kinetics. Immediately following lethal irradiation and tail vein injection of Tg+ BM cells, recipient mice were given either TNP-470 or saline starting on day 0. Dose schedules were also varied from a single dose at the time of stem cell infusion to an initial dose on day 0 followed by administration of TNP-470 or saline 3 times a week (Table 3). Mice were initially sacrificed on days 28-32 at all dose levels. Comparative kinetics were then further analyzed by sacrificing groups of mice at day 21, day 24, and day 28 at dose level 3.

The nature of data set [2]: Recovery of peripheral blood counts and marrow cellularity after stem cell rescue. Format: in vivo, FVB mice. How it is done: as §1
Alzet infusion pump placement. Using sterile technique following anesthesia, a 1 cm midline abdominal incision was made and 14 day Alzet micro-osmotic pumps (0.25 μl/hr, model 1002) containing either TNP-470 or saline were placed intraperitoneally. The peritoneum and skin were then secured separately using 4.0 vicryl suture. The animals were allowed to recover overnight and then subjected to TBI and stem cell infusion on the following day.
Analysis of engraftment. […] Following cervical dislocation, BM and splenocytes were collected from recipient mice. Analysis was performed after red cell lysis with NH4Cl. For flow cytometric analysis of lymphoid engraftment, Tg IgM expressed only in B cells derived from the donor was detected by antibodies recognizing human IgM (RAHM; Jackson ImmunoResearch, West Grove, Pa.) and mouse CD45R (B220, Pharmingen, Torreyana, Calif.) in a two-color protocol on a FACS Caliber cytometer (Becton-Dickinson, Franklin Lakes, N.J.). Splenocytes from untransplanted Tg− and Tg+ mice provided negative and positive controls, respectively. Lymphoid engraftment was defined as the percentage of lymphoid cells in spleen and BM that were B220/RAHM positive. In addition to flow cytometry, genomic DNA from tail snips, blood, BM, and splenocytes was analyzed by PCR for the presence of the transgene, using a procedure and primers previously reported (15). The transgene was detectable by PCR in all donor-derived cells in the recipient, while the tail snips of Tg− mice provided a negative control. Genomic DNA was also isolated from splenic and peripheral blood T cells. Splenic T cells were isolated using the Cellect T isolation column (Biotex, Edmonton, Canada) according to the manufacturer's protocol. Peripheral blood T cells were sorted on the FACS Vantage (Becton-Dickson) after staining with antibodies recognizing mouse CD3 (Pharmingen). Recovery of peripheral blood counts was also analyzed. Blood was collected from cardiac puncture and placed in EDTA tubes (Becton-Dickson). Analysis was then performed with a HemeVet (CDC Technologies) instrument using mouse-specific parameters. Hemoglobin was measured and white blood cells (WBC) and platelets were enumerated.

The subject of data set [3] is human hematopoietic progenitors. Nature of the data set: In vitro bone marrow culture, colony formation in methylcellulose. Format: cell-based. How it is done: In vitro bone marrow culture. Light density cells separated by density gradient centrifugation (Lymphocyte Separation Medium, ICN Pharmaceutical, Costa Mesa, Calif.) from normal human BM donors were plated in methylcellulose medium with recombinant cytokines. This medium, MethoCult GF (Stem Cell Technologies, Vancouver, Canada), contains stem cell factor 50 ng/ml, GM-CSF 10 ng/ml, IL-3 10 ng/ml and erythropoietin 3 units/ml. 5×10^4 BM cells/dish were cultured with TNP-470 at concentrations ranging from 1 mcg/ml to […], with duplicate cultures at each dose. The plates were scored after 14 days of culture, enumerating colony-forming unit granulocyte/macrophage (CFU-GM), CFU-mix, CFU-erythrocyte and burst-forming unit erythrocyte (CFU-E and BFU-E).
Effect of TNP-470 on bone marrow colony-forming cells. Although hematologic toxicity has not been described in the TNP-470 phase I trials (24, 25), there is one report of in vitro evidence of BM toxicity (16). In order to confirm this finding, we investigated the effect of relatively high concentrations of TNP-470 (0-100 μg/ml) on growth of human hematopoietic progenitors in standard methylcellulose culture. […] Although this assay is not necessarily predictive of in vivo BM toxicity, the result emphasizes the need to develop a pre-clinical model of stem cell transplantation to assess the effect of AIs on engraftment.

For data set [4] the following is noted: cited from earlier work.

Molecules are shown by their SMILES.

With `CO[C@@H]1[C@H](OC(=O)NC(=O)CCl)CC[C@@]2(CO2)[C@H]1[C@]1(C)O[C@@H]1CC=C(C)C` [TNP-470], the “effect on primary tumor and metastases” value in the data set on neuroblastoma cell lines was “decreased the primary tumor volume and the size and number of lymph node and liver metastases”. The Overall survival in data set [1] (all dose levels, after stem cell rescue) is given as 66%. Also, the survival rate in data set [1] (dose level 1 (20 mg/kg on day 0 and then thrice weekly), at completion of the experiment) is given as 57%. Besides, the “survived to experiment completion” value in data set [1] (dose level 2 (100 mg/kg on day 0 only), day 28-32) turned out to be 71%. The weight loss entry in data set [1] (dose level 4 (100 mg/kg 3×/week)) is “greater weight loss than the control animals”. The skin irritation entry in data set [1] (dose level 4 (100 mg/kg 3×/week), SQ) is “evidence of skin irritation at the injection sites”. Besides, the WBC in data set [2] (continuous infusion) is 6300 µL⁻¹; in data set [2] (day 28 post BMT, continuous infusion IP via Alzet pump at 10 mg/kg/wk, mean ± SEM) it was 6.3 ± 0.4 10^3/μL; in data set [2] (day 28 post BMT, intermittent dosing, dose level 3, SQ three times/wk, mean ± SEM), 3.6 ± 0.7 10^3/μL. For the same compound, the “hemoglobin or platelet recovery versus control” value in data set [2] (continuous infusion 10 mg/kg/week) is recorded as “no significant differences”. Moreover, in data set [2] (day 28, dose level 3, femurs), the “marrow cellularity versus controls” value is listed as “no difference”. The “hemoglobin or platelet count versus control” value in data set [2] (intermittent (bolus) dosing) was “No statistical differences”. The “mean white blood cell count” value in data set [2] (intermittent TNP-470) amounted to 3600 µL⁻¹. This compound displayed an inhibition at 4 µg/mL in data set [3] (Homo sapiens, 336 h, TNP-470 4 μg/ml, myeloid and erythroid colonies, 14 days culture) greater than 80%. Further, the “inhibition of colony-forming cells” value in data set [3] (higher doses than 4 μg/ml (range 0-100 μg/ml)) was “complete inhibition”. Also, in data set [4] (Phase I trials), the “hematologic toxicity in Phase I trials” value was “no significant hematologic toxicity”. For the same compound, the “maximal tolerated dose (MTD)” value in data set [4] (one-hour intravenous infusions, three times a week, intermittent schedule) is 60 mg/m^2.
